Data published in patent publication US20210223252A1, “METHODS FOR PROTEOMIC PROFILING USING NON-NATURAL AMINO ACIDS” (California Institute of Technology, priority 2004, published 2021).

Tests used:
HEK293 cells [1] = assay: Ubiquitin signal on Western blot of whole lysates (protein degradation); type: cell-based; conditions: treated two hours
Protocol: To show the specificity of this technique for the detection of newly synthesized proteins, HEK293 cells were incubated for 2 hrs with AHA in the presence or absence of a protein synthesis inhibitor (Anisomycin or Cycloheximide). After incubation, cells were lysed and subjected to [3+2]cycloaddition with the biotin-bearing alkyne-linker Biotin-PEO-Propargylamide, followed by Western blot analysis with an anti-Biotin-antibody. […] The potential for increased protein degradation was measured by examining the ubiquitin signal strength on a Western blot from whole lysates of HEK293 cells, which were treated with AHA, methionine or incubation buffer for two hours.

[2] = tested on: dissociated hippocampal neurons; assay: AHA toxicity by whole neuron morphology (GFP reporter); type: cell-based, rat; conditions: 2 hrs incubation
Protocol: Dissociated hippocampal neuron cultures were prepared from newborn rat pups (PO) as outlined in (Banker and Goslin, 1990), Neurons were plated at a density of 15,000-45,000 cells/cm^2 onto poly-D-lysine coated cell culture dishes or onto poly-D-lysine and growth factor reduced matrigel (BD Biosciences) coated polycarbonate nets with a pore size of 3 (Transwell, Corning) for the preparation of isolated dendrites. The cultures were maintained and allowed to mature in growth medium (Neurobasal-A supplemented with B27 and GlutaMAX-1) for 14 to 21 days before use. The use of this growth medium suppressed glial proliferation, which was even more reduced by application of Ara-C (5 μM final concentration). To supplement glial neurotrophic factors, 25% conditioned growth media from glial and cortical cultures were added to the growth media. Isolated dendrites were obtained from Transwell cultures by removing the cell body layer with a sterile cell lifter after change to HBS. For immunolabeling after AHA-incorporation and cycloaddition with BiotinCyclooctyne, neurons are fixed at room temperature with 4% paraformaldehyde for 20 minutes. […] Images are recorded through standard emission filters at contrast settings for which the crossover between the two channels is negligible. […]

[3] = tested on: E. coli and mammalian cells; assay: Protein degradation upon introduction of AHA; type: cell-based; conditions: studies in E. coli and experiments in mammalian cells
HEK293 cells [4] = assay: Detection of newly synthesized proteins: AHA labelling, [3+2]cycloaddition with Biotin-PEO-Propargylamide, anti-Biotin Western blot; type: cell-based; conditions: HEK293 cells incubated 2 hrs with AHA in the presence of the protein synthesis inhibitor
Protocol: In embodiments using [3+2] Cycloaddition, the following exemplary protocol may be used. Briefly, AHA, Biotin-PEO-Propargylamide and the triazole ligand were prepared as described previously. The tandem featured alkyne tag was synthesized by GenScript Corporation. Biotin-Cyclooctyne is a generous gift from Carolyn Bertozzi. DIO-L-leucine was purchased from Sigma. In all culture experiments, growth medium was removed from HEK293 cells, whole neuronal cultures or isolated dendrites were replaced with HEPES-buffered solution (HBS) with 2.86 mM AHA, and 2.86 mM methionine for control experiments. After incubation at 37° C., 5% CO2, cells were washed with PBS-MC (1 mMMgCl2, 0.1 mM CaCl2 in PBS) to remove excess amounts of AHA and methionine. SNS and other biochemical fractions are incubated with 2.86 mM AHA or 2.86 mM methionine under agitation at 37° C. and washed in StimBuffer after incubation. […]
To show the specificity of this technique for the detection of newly synthesized proteins, HEK293 cells were incubated for 2 hrs with AHA in the presence or absence of a protein synthesis inhibitor (Anisomycin or Cycloheximide). […] The potential for increased protein degradation was measured by examining the ubiquitin signal strength on a Western blot from whole lysates of HEK293 cells, which were treated with AHA, methionine or incubation buffer for two hours.

SMILES	ubiquitination compared to buffer or methionine controls (HEK293 cells [1])	gross morphology of neurons compared to methionine controls ([2]; 12 DIV neurons expressing GFP reporter)	toxicity to neurons ([2]; primary/dissociated hippocampal neuronal cultures, equimolar AHA or methionine control)	increased protein degradation [3]	anti-Biotin Western blot signal of AHA-labelled newly synthesized proteins (HEK293 cells [4])
[N-]=[N+]=NCC[C@H](N)C(=O)O [AHA, azidohomoalanine]	No increased ubiquitination	no change in the gross morphology	not toxic	no evidence of increased protein degradation	–
COc1ccc(C[C@H]2NC[C@H](O)[C@H]2OC(C)=O)cc1 [Anisomycin]	–	–	–	–	No signal was detected
C[C@@H]1C[C@@H]([C@H](O)CC2CC(=O)NC(=O)C2)C(=O)[C@@H](C)C1 [Cycloheximide]	–	–	–	–	No signal was detected
